According to US20210355105A1, “REGULATOR OF NITROGEN-CONTAINING HETEROAROMATIC DERIVATIVES, PREPARATION METHOD THEREFOR AND USE THEREOF” (Jiangsu Hansoh Pharmaceutical Group Co., Ltd., priority 2018, published 2021):

Legend:
[1] = test system: NCI-H358 cells; experiment: Proliferation inhibition of NCI-H358 cells (CellTiter-Glo); assay type: cell-based; conditions: Homo sapiens, NCI-H358, 72 h; 3 days incubation
Protocol: Experimental method: 3000 cells (90 μL of cell suspension) were inoculated to each well of a 96-well cell culture plate (Corning, #3610). The culture plate was incubated in an incubator overnight (37° C., 5% CO2). On the next day, 10 μL of gradient dilutions of the test compound solution (the final DMSO content was 0.2%, V/V, the final concentration of the reaction system ranged from 10 μM to 4.5 nM) was added to each well of the culture plate. At the same time, full activity control (compound only with DMSO) and full inhibition control (no cells) were set up on the reaction plate. The culture plate was incubated in the incubator for 3 days (37° C., 5% CO2).
After completion of the incubation, 50 μL of CellTiter-Glo reagent was added to each well of the cell culture plate, which was left to stand at room temperature for 10 minutes. The chemiluminescence signal value was measured in the Synergy H1 full-function microplate reader (BioTek). […] The IC50 value of the test compounds was calculated by fitting the percentage inhibition rate and data of eight concentrations to a four-parameter nonlinear logic formula with GraphPad prism.
The IC50 value was calculated by fitting the data of different concentrations and corresponding percentage inhibition rates to a four-parameter nonlinear logic formula with GraphPad prism.

[2] = target: T1, SHP-2 full-length protein (Homo sapiens, UniProt Q06124); experiment: Inhibition of SHP-2 kinase activity (Homogeneous Full Length SHP-2 Assay Kit); assay type: biochemical; conditions: relative IC50, full-length SHP-2 with activating peptide
T1 construct: purchased BPS Bioscience 79330
T1 sequence (Q06124 1-593): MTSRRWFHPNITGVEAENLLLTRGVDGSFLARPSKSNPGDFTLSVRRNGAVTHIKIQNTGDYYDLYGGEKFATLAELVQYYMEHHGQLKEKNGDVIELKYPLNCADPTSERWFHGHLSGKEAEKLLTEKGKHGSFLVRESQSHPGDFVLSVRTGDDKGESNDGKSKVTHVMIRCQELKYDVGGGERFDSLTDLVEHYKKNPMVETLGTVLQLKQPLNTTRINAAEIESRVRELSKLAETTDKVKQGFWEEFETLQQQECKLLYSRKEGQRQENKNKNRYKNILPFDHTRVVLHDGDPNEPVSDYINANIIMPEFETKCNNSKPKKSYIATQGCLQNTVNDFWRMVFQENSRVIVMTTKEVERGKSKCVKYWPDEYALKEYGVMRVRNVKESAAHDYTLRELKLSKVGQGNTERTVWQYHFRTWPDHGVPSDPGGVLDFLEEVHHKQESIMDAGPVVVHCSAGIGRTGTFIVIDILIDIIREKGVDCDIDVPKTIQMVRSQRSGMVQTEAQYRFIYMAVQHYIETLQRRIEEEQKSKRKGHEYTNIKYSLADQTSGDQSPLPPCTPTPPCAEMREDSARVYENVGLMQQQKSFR
Protocol: The objective of this test is to determine the inhibitory effect of the compounds on SHP-2 full-length protein allosteric activity.
Experimental method: Homogeneous Full Length SHP-2 Assay Kit (BPS Bioscience, #79330) was used to determine the in vitro SHP-2 activity. First, 18 μL of Master Mix was added to a 96-well low adsorption microplate (NUNC, #267342), i.e., the reaction buffer with a final concentration of 1× comprised 0.5 μM SHP-2 activating Peptide and 5 mM DTT. After centrifugation, 5 μL of test compound/DMSO was added to each well (the final DMSO content was 1%, V/V, the test compound was dissolved in DMSO to 1 mM, a three-fold serial dilution was carried out to obtain ten concentrations, the final concentration of the reaction system ranged from 1 μM to 0.05 nM). SHP-2 was diluted in the 1× reaction buffer to a final concentration of 0.06 nM, and the resulting solution was added to the reaction microplate (2 μL per well). Full activity control (compound only with DMSO) and full inhibition control (no SHP-2) were set up on the reaction plate. After centrifugation, the reaction mixture was incubated at room temperature for 60 minutes.
After completion of the incubation, 25 μL of Substrate solution, which comprised Substrate with a final concentration of 10 μM and 5 mM DTT, was added to each well. After centrifugation, the reaction mixture was incubated at room temperature for 30 minutes. After completion of the reaction, readings were measured on the Synergy H1 full-function microplate reader (BioTek) (excitation wavelength: 340 nm, emission wavelength: […], gain value: 75).
The IC50 value of the test compounds was calculated by fitting the percentage inhibition rate and data of ten concentrations to a four-parameter nonlinear logic formula with GraphPad prism.

[3] = target: T2, hERG potassium channel (Homo sapiens, UniProt Q12809); experiment: Inhibitory activity on hERG potassium channel (Qpatch, CHO-hERG cells); assay type: cell-based; conditions: six concentrations up to 40 μM, read-out: hERG (inhibitory effect on hERG current)
T2 construct: expressed in transfected cells; host or cells: CHO-hERG cells
Protocol: 8.1.1 CHO-hERG cells were cultured in a 175 cm^2 culture flask. When the cells were grown to a density of 60 to 80%, the culture solution was removed, and the cells were washed once with 7 mL of PBS, and then 3 mL of Detachin was added for digestion of the cells.
8.1.2 After the digestion was complete, the cells were neutralized by adding 7 mL of the culture solution and then centrifuged. The supernatant was removed, and then 5 mL of the culture solution was added for resuspension to ensure a cell density of 2-5×10^6 cells/mL.
The single-cell high-impedance sealing and whole-cell pattern formation processes were both completed automatically by the Qpatch instrument. After the whole-cell recording pattern was obtained, the cells were clamped at −80 millivolts. A pre-voltage of −50 millivolts was applied for 50 milliseconds prior to the application of a depolarizing stimulus of +40 millivolts for 5 seconds, and then the cells were repolarized to −50 millivolts and maintained for 5 seconds, and then returned back to −80 millivolts. This voltage stimulation was applied every 15 seconds, and data were recorded for 2 minutes, and thereafter the extracellular fluid was administered and data were recorded for 5 minutes, and then the administration process was started. The compound was administered from the lowest test concentration, and 2.5 minutes were given for each test concentration. After all the concentrations of the compound were administered, […] Cisapride as a positive control compound was administered. At least three cells (n≥3) were tested for each concentration.
8.4.1 20 mM compound mother solution was diluted with the extracellular fluid. 5 μL of the 20 mM compound mother solution was diluted 500 times to 40 μM by adding 2495 μL of the extracellular fluid, and then 3-fold serial dilutions were performed sequentially in the extracellular fluid containing 0.2% DMSO to obtain a final concentration to be tested.
8.4.2 The highest test concentration was 40 μM, and there were six concentrations in total, i.e., 40, 13.33, 4.44, 1.48, 0.49, and […], respectively.
The experimental data were analyzed by XLFit software.

[4] = test system: human pancreatic cancer cell MiaPaca 2 xenograft; experiment: Tumor inhibition test on MiaPaca 2 xenograft model; assay type: in vivo, Balb/c nude mice; conditions: 6 mg/kg QD × 3 w, intragastric
Protocol: Balb/c nude mice were used as test animals. In vivo pharmacodynamic test was carried out on human pancreatic cancer cell MiaPaca 2 xenograft (CDX) model to evaluate the anti-tumor effect of the test compounds.
MiaPaca 2 cells were taken from the cell bank and thawed. The cells were added to the DMEM medium (containing 10% FBS, 1% Glu and 1% P/S), and incubated in the CO2 incubator (the temperature of the incubator was 37° C., and the CO2 concentration was 5%). After the cells covered 80-90% of the bottom of the culture flask, the cells were passaged. After passage, the cells continued to be incubated in the CO2 incubator. The process was repeated until the number of cells met the inoculation requirement of the in vivo pharmacodynamic test. The cells in logarithmic growth phase were collected, and counted by the automatic cell counter. According to the counting results, the cells were resuspended with PBS and Matrigel (volume ratio: 1:1) to obtain a cell suspension (density: 8×10^7/ml), which was placed in an ice box for later use.
Female Balb/c nude mice (6-8 weeks old, body weight: about 18-22 grams) were used as test animals. The mice were maintained in an environment free of special pathogens and in a single ventilated cage (five mice per cage). All cages, bedding and water were disinfected before use. All animals had free access to standard certified commercial laboratory animal diets. The nude mice were marked with a disposable universal ear tag for rats and mice before the test. The skin of the inoculation site was disinfected with 75% medical alcohol before the inoculation. Each mouse was inoculated with 0.1 ml of MiaPaca 2 tumor cells (containing 8*10^6 cells) subcutaneously on the right back. When the average tumor volume reached 100 to 200 mm^3, administration was carried out. The test compounds were administered intragastrically daily. The tumor volume (mm^3) was measured with the vernier caliper twice a week. The tumor volume calculation formula: V=0.5*D*d*d, wherein D and d represent the long diameter and short diameter of the tumor, respectively. The anti-tumor efficacy was determined by dividing the average tumor increase volume of the compound-treated animals by the average tumor increase volume of the untreated animals. Tumor growth inhibition rate calculation formula: […]
All animals were euthanized after the experiment.

[5] = Pharmacokinetics assay in rats, oral administration; assay type: in vivo; conditions: rat; male SD rats, oral 5 mg/kg, plasma
Protocol: SD rats were used as test animals.
(§1) 5 g of hydroxyethyl cellulose (HEC, CMC-Na, viscosity: 800-1200 Cps) was dissolved in 1000 mL of purified water, and 10 g of Tween80 was added. The solution was mixed well to form a clear solution.
The solution was shaked well and subjected to ultrasound for 15 minutes to obtain a colorless and clear solution with a concentration of 0.5 mg/mL.
After an overnight fast, male SD rats (3 rats per group) were administrated orally with the test compounds at an administration dose of 5 mg/kg and an administration volume of 10 mL/kg.
0.2 mL of blood was taken from jugular vein before administration and at 0.5 hour, 1.0 hour, 2.0 hours, 4.0 hours, 6.0 hours, 8.0 hours and 24.0 hours after administration. The blood samples were stored in EDTA-2K tubes, and centrifuged for 6 minutes at 6000 rpm, at 4° C. to separate the blood plasma. The plasma samples were stored at −80° C. The rats were fed four hours after administration.

[6] = Pharmacokinetics assay in mice, oral administration; assay type: in vivo; conditions: mouse; male Balb/c mice, oral 5 mg/kg, plasma
Protocol: Balb/c mice were used as test animals.
as §1, with “solution. […] The solution was subjected to ultrasound for 10 minutes to obtain a colorless and clear solution with a concentration of 0.5 mg/mL.” for “solution.”
After an overnight fast, male Balb/c mice were administrated orally with the test compounds at an administration dose of 5 mg/kg and an administration volume of 10 mL/kg.
Blood was taken before administration and at 0.25 hour, 0.5 hour, 1 hour, 2 hours, 4 hours, 6 hours, 8 hours and 24 hours after administration. The blood samples were stored in EDTA-2K tubes, and centrifuged for 6 minutes at 6000 rpm, at 4° C. to separate the blood plasma. The plasma samples were stored at −80° C. The mice were fed four hours after administration.

T2 sequence (Q12809 whole entry): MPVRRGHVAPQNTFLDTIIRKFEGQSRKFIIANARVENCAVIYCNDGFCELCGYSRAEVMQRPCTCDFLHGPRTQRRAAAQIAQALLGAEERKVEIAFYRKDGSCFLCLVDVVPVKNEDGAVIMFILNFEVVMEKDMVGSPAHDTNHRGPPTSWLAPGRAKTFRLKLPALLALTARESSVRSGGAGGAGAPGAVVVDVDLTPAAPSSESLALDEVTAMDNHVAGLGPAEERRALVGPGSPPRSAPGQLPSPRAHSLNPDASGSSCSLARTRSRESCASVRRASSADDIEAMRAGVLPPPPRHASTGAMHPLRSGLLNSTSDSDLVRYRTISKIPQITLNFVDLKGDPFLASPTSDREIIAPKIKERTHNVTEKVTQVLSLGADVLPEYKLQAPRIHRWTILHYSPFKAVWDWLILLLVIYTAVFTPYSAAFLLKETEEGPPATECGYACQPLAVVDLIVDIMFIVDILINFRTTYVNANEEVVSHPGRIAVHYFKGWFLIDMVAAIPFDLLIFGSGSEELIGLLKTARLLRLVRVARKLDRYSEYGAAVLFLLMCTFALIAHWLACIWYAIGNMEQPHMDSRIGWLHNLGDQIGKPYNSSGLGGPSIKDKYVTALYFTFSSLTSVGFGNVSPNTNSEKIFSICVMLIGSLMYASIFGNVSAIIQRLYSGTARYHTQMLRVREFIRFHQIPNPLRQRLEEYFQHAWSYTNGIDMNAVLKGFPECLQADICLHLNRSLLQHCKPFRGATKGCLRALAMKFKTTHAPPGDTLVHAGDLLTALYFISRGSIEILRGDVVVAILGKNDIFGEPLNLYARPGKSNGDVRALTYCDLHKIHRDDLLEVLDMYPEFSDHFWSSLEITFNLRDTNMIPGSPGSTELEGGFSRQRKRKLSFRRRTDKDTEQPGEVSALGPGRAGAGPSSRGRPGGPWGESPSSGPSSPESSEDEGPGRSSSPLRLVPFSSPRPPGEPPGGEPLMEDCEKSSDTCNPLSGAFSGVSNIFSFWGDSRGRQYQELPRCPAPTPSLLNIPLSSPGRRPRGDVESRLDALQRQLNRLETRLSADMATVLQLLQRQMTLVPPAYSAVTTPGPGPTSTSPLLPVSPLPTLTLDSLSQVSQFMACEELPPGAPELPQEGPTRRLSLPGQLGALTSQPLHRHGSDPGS

| IC50 [1] | IC50 [2] | AUC(0-inf) [5] | Cmax [5] | MRT [5] | Tmax [5] | half-life [5] | AUC(0-inf) [6] | Cmax [6] | MRT [6] | Tmax [6] | half-life [6] | SMILES | IC50 [3] | Tumor volume (Mean ± SD) Day 0 [4] | TGI Day 21 [4] | Tumor volume (Mean ± SD) Day 21 [4] | ΔT/ΔC Day 21 [4] |
| --- | --- | --- | --- | --- | --- | --- | --- | --- | --- | --- | --- | --- | --- | --- | --- | --- | --- |
| 13.4 nM | 9.28 nM | – | – | – | – | – | – | – | – | – | – | Cc1nc(Sc2ccnc(N)c2Cl)c(N)nc1N1CCC2(CC1)Cc1ccccc1[C@H]2N [Example 96, (S)-1′-(6-amino-5-((2-amino-3-chloropyridin-4-yl)thio)-3-methylpyrazin-2-yl)-1,3-dihydrospiro[indene-2,4′-piperidin]-1-amine] | 5240 nM | 170 ± 28 (171 ± 25) mm^3 | 97.76% | 183 ± 70 mm^3 | 2.24% |
| 79.9 nM | 9.29 nM | 6250 ng·h/mL | 666 ng/mL | 5.67 h | 1 h | 4.12 h | 5980 ng·h/mL | 996 ng/mL | 5.15 h | 0.5 h | 3.92 h | Nc1nc(N2CCC3(CC2)Cc2ncccc2[C@H]3N)c(F)nc1Sc1ccnc(N)c1Cl [Example 180, (S)-1′-(6-Amino-5-((2-amino-3-chloropyridin-4-yl)thio)-3-fluoropyrazin-2-yl)-5,7-dihydrospiro[cyclopenta[b]pyridine-6,4′-piperidin]-5-amine] | – | – | – | – | – |

| SMILES | IC50 [1] | IC50 [2] | AUC(0-inf) [5] | Cmax [5] | MRT [5] | Tmax [5] | half-life [5] | AUC(0-inf) [6] | Cmax [6] | MRT [6] | Tmax [6] | half-life [6] | IC50 [3] | Tumor volume (Mean ± SD) Day 0 [4] | TGI Day 21 [4] | Tumor volume (Mean ± SD) Day 21 [4] | ΔT/ΔC Day 21 [4] |
| --- | --- | --- | --- | --- | --- | --- | --- | --- | --- | --- | --- | --- | --- | --- | --- | --- | --- |
| Nc1nc(N2CCC3(CC=C(C4CC4)[C@H]3N)CC2)cnc1Sc1ccnc(N)c1Cl [Example 143, (S)-8-(6-amino-5-((2-amino-3-chloropyridin-4-yl)thio)pyrazin-2-yl)-2-cyclopropyl-8-azaspiro[4.5]dec-2-en-1-amine] | 23.3 nM | 3.8 nM | – | – | – | – | – | – | – | – | – | – | 6170 nM | 166 ± 27 (168 ± 32) mm^3 | 95.64% | 196 ± 62 mm^3 | 4.36% |
